# Where two headings read alike, the source gives them in different places.
# What was measured:
# [1] = target: T1, cytoplasmic domain of the human CSF-1R (Homo sapiens, UniProt P07333); assay: In vitro kinase assay for colony stimulating factor-1 receptor (AlphaScreen); format: biochemical; settings: read-out: CSF-1R percent inhibition
# T1 construct: Recombinant protein corresponding to the cytoplasmic domain of the human CSF-1R; purchased Invitrogen Corporation, Carlsbad, Calif; PV3249
# T1 sequence (P07333 539-972 limits assumed): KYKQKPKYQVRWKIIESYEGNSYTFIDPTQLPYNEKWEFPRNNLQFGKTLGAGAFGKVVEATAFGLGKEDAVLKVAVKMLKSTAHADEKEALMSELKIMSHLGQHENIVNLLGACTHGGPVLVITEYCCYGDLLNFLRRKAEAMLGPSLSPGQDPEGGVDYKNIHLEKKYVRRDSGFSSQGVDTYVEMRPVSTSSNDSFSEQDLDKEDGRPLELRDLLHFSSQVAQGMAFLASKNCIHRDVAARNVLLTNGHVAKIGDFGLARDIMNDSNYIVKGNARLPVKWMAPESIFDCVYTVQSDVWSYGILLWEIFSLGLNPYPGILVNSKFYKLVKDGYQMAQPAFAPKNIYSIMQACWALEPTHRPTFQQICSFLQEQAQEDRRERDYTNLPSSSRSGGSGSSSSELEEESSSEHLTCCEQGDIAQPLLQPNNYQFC
# Summary of the method: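 Tyrosine phosphorylation of a peptide substrate by 4 nM recombinant cytoplasmic-domain enzyme is measured at 1 μM ATP in Mn2+/Mg2+-containing Hepes buffer, pH 7.5. Detection uses PT66 AlphaScreen beads after overnight incubation.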
# [2] = target: T2, full-length human CSF-1R receptor (Homo sapiens, UniProt P07333); assay: In vitro inhibition of CSF-1R receptor tyrosine phosphorylation in transfected HEK293H cells stimulated with MCSF; format: cell-based; settings: HEK293-H, read-out: pCSF1R percent inhibition
# T2 construct: transfected with the full-length human CSF-1R receptor cloned in house; expressed in transfected cells; host or cells: HEK293H (Invitrogen Cat. #11631017)
# Procedure: The lysate was then transferred to total CSF-1R antibody coated 96-well plates that had already been blocked with 3% Blocker A from Mesoscale discovery (MSD) for 2 hours and washed afterwards. Lysates were incubated overnight at 4° C. and the plates were then washed 4× with MSD Tris Wash Buffer. […] The plates were read on the Sector 6000 instrument (MSD). Raw data was imported in Abase and EC50s calculated with XL-fit data analysis software.
# kinase domain of cKIT = target: T3, kinase domain of cKIT (Homo sapiens, UniProt P10721); assay: Inhibition of cKIT kinase signaling in an in vitro biochemical assay (alphascreen); settings: tested at about 1 μM, read-out: cKit percent inhibition
# T3 construct: The kinase domain of cKIT was assayed in 50 mM Hepes; purchased Upstate 14-559
# kinase domain of PDGFRβ = target: T4, kinase domain of PDGFRβ (Homo sapiens, UniProt P09619); assay: Inhibition of PDGFRb kinase signaling in an in vitro biochemical assay (alphascreen); settings: tested at about 1 μM, read-out: PDGFRβ percent inhibition
# T4 construct: The kinase domain of PDGFRβ was assayed in 50 mM Hepes; purchased Invitrogen P3082
# [3] = test system: MNFS60 (murine AML cells); assay: Cell viability assay in MCSF dependent MNFS60 cells (Cell Titer Glo); format: cell-based; settings: Mus musculus, read-out: M-NFS-60 CP percent inhibition
# Summary of the method: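 EC50 values reflect MCSF-driven (10 ng/ml final) proliferation over 72 hrs at 37° C., read by CellTiter-Glo. Each condition was run in triplicate.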
# [4] = tested at about 1 μM, HEK293H cells
# [5] = tested at about 1 μM, MCSF dependent MNFS60 cells
# [6] = tested at about 1 μM, MNFS60 cells
# [7] = tested at about 1 μM, compounds of Table 3
# T4 sequence (P09619 600-962 limits assumed): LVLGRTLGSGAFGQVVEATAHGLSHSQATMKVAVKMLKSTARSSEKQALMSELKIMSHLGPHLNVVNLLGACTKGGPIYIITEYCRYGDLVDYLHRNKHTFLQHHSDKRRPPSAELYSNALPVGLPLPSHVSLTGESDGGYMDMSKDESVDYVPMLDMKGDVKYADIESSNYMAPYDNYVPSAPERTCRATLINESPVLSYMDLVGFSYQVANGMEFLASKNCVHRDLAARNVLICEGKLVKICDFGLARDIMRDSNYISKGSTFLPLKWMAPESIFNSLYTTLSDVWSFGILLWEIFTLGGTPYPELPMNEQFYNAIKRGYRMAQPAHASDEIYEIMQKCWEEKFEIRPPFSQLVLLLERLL
# T3 sequence (P10721 589-937 limits assumed): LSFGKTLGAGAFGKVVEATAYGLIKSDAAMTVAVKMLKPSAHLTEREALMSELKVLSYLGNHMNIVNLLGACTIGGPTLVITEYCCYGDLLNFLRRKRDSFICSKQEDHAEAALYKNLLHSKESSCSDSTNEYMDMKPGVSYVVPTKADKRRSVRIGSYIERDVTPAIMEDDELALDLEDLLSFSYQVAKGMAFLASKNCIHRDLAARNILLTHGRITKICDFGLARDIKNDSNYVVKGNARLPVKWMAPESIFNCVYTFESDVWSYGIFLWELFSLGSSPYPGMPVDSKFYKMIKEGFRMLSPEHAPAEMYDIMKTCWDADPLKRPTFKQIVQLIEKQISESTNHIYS
# T2 sequence (P07333 20-972): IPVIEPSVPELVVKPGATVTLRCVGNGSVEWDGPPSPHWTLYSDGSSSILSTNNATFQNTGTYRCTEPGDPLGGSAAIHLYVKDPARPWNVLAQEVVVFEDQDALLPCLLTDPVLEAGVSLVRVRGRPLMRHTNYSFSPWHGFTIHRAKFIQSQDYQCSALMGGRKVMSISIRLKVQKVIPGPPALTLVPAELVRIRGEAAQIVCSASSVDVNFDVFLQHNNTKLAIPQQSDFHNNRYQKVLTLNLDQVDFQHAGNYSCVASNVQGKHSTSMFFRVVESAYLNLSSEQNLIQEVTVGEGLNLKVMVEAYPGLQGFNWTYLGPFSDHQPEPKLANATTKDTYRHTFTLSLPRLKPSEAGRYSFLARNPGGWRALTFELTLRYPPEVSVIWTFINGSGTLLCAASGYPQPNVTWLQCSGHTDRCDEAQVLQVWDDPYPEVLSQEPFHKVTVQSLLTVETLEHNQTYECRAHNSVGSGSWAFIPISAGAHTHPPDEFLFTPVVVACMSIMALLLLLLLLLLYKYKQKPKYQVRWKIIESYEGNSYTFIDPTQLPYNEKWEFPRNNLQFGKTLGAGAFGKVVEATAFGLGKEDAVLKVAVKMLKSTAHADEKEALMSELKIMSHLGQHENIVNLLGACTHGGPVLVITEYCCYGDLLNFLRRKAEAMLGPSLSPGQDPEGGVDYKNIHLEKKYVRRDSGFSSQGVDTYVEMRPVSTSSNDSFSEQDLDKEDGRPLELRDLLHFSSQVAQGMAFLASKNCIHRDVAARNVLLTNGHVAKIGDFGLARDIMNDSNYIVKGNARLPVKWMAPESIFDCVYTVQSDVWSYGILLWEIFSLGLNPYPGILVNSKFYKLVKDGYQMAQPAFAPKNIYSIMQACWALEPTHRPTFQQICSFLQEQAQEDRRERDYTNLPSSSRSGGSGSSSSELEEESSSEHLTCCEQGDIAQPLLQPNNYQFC
SMILES,inhibition at 1 µM ([1]; tested at about 1 μM) [%],"inhibition at 1 µM [2, 4] [%]",inhibition at 1 µM (kinase domain of cKIT) [%],inhibition at 1 µM (kinase domain of PDGFRβ) [%],"inhibition at 1 µM [3, 5] [%]","inhibition at 1 µM [3, 6] [%]","inhibition at 1 µM [1, 7] [%]","inhibition at 1 µM [2, 7] [%]",inhibition at 1 µM (kinase domain of cKIT; compounds of Table 3) [%],inhibition at 1 µM (kinase domain of PDGFRβ; compounds of Table 3) [%],"inhibition at 1 µM [3, 7] [%]",inhibition at 1 µM [1] [%],inhibition at 1 µM [2] [%],inhibition at 1 µM [3] [%]
"CNC(=O)c1cc(Oc2ccc3nc(N[C@@H]4c5ccccc5C[C@@H]4O)sc3c2)ccn1 [Example 323, 4-(2-((1R,2S)-2-hydroxy-2,3-dihydro-1H-inden-1-ylamino)benzo[d]thiazol-6-yloxy)-N-methylpicolinamide]",100,98,25,24,100,,,,,,,,,
"CNC(=O)c1cc(Oc2ccc3nc(N[C@@H](CO)C4CCCCC4)oc3c2)ccn1 [Compound 67, 4-[2-((R)-1-Cyclohexyl-2-hydroxy-ethylamino)-benzo-oxazol-6-yloxy]-pyridine-2-carboxylic acid methylamide]",97,0,8,1,,10,,,,,,,,
"CNC(=O)c1cc(Oc2ccc3nc(NCCc4ccccc4OC)sc3c2)ccn1 [Example 317, 4-(2-(2-methoxyphenylethylamino)benzo[d]thiazol-6-yloxy)-N-methylpicolinamide]",100,95,70,12,50,,,,,,,,,
"O[C@@H]1CCCC[C@H]1Nc1nc2ccc(Oc3ccnc(-c4ccc(N5CCOCC5)nc4)c3)cc2s1 [Cmpd 165, (1R,2R)-2-(6-(6'-morpholino-2,3'-bipyridin-4-yloxy)benzo[d]thiazol-2-ylamino)cyclohexanol]",,,,,,,100,98,83,83,100,,,
"Cn1cc(-c2cc(Oc3ccc4nc(N[C@H]5CCCN(S(=O)(=O)C6CC6)C5)sc4c3)ccn2)cn1 [Example 373, (S)-N-(1-(cyclopropylsulfonyl)piperidin-3-yl)-6-(2-(1-methyl-1H-pyrazol-4-yl)pyridin-4-yloxy)benzo[d]thiazol-2-amine]",101,91,51,0,100,,,,,,,,,
"O[C@@H]1CCCC[C@H]1Nc1nc2ccc(Oc3ccnc(-c4ccnc(F)c4)c3)cc2s1 [Cmpd 171, (1R,2R)-2-(6-(2'-fluoro-2,4'-bipyridin-4-yloxy)benzo[d]thiazol-2-ylamino)cyclohexanol]",,,,,,,100,95,25,18,96,,,
"C[C@H](Nc1nc2ccc(Oc3ccnc4ccccc34)cc2s1)C1CCCCC1 [Example 241, (S)-N-(1-cyclohexylethyl)-6-(quinolin-4-yloxy)benzo[d]thiazol-2-amine]",,,,,,,100,65,25,23,51,,,
"O[C@@H]1CCCC[C@H]1Nc1nc2ccc(Oc3ccnc(-c4ccc(F)nc4)c3)cc2s1 [Cmpd 173, (1R,2R)-2-(6-(6'-fluoro-2,3'-bipyridin-4-yloxy)benzo[d]thiazol-2-ylamino)cyclohexanol]",,,,,,,100,81,18,8,52,,,
"CNC(=O)c1cc(Oc2ccc3nc(NCc4cccc(F)c4F)oc3c2)ccn1 [Compound 79, 4-[2-(2,3-Difluoro-benzylamino)-benzooxazol-6-yloxy]-pyridine-2-carboxylic acid methylamide]",100,94,31,0,,57,,,,,,,,
"Cn1cc(-c2cc(Oc3ccc4nc(NCC5CCCCC5)sc4c3)ccn2)cn1 [Example 340, N-(cyclohexylmethyl)-6-(2-(1-methyl-1H-pyrazol-4-yl)pyridin-4-yloxy)benzo[d]thiazol-2-amine]",100,96,100,98,100,,,,,,,,,
"CNC(=O)c1cc(Oc2ccc3nc(NCc4cccc5c4OCCO5)oc3c2)ccn1 [Compound 65, 4-{2-[(2,3-Dihydro-benzo-[1,4]dioxin-5-ylmethyl)-amino]-benzooxazol-6-yloxy}-pyridine-2-carboxylic acid methylamide]",99,97,98,38,,100,,,,,,,,
"C[C@H](Nc1nc2ccc(Oc3ccnc(-c4ccncc4)c3)cc2s1)C1CCCCC1 [Example 275, (S)-6-(2,4'-bipyridin-4-yloxy)-N-(1-cyclohexylethyl)benzo[d] thiazol-2-amine]",,,,,,,100,94,45,16,89,,,
"Cn1cc(-c2cc(Oc3ccc4nc(N[C@@H]5CCCC[C@H]5O)sc4c3)ccn2)cn1 [Example 344, (1R,2R)-2-(6-(2-(1-methyl-1H-pyrazol-4-yl)pyridin-4-yloxy)benzo[d]thiazol-2-ylamino)cyclohexanol]",,,45,65,,,,,,,,100,95,100
CNC(=O)c1cc(Oc2ccc3nc(NC(CO)C4CCOCC4)sc3c2)ccn1 (centres unmarked) [Compound 95],,,,,,,100,65,0,2,60,,,
"CNC(=O)c1cc(Oc2ccc3nc(NCc4cccnc4)sc3c2)ccn1 [Compound 154, 4-{2-[(Pyridin-3-ylmethyl)-amino]-benzothiazol-6-yloxy}-pyridine-2-carboxylic acid methylamide]",99,93,17,18,,48,,,,,,,,
"Cn1cc(-c2cc(Oc3ccc4nc(N[C@H]5CCCc6ccccc65)sc4c3)ccn2)cn1 [Example 362, (S)-6-(2-(1-methyl-1H-pyrazol-4-yl)pyridin-4-yloxy)-N-(1,2,3,4-tetrahydronaphthalen-1-yl)benzo[d]thiazol-2-amine]",100,100,99,92,100,,,,,,,,,
"CNC(=O)c1cc(Oc2ccc3nc(NCc4ccccc4N4CCOCC4)sc3c2)ccn1 [Compound 142, 4-[2-(2-Morpholin-4-yl-benzylamino)-benzothiazol-6-yloxy]-2-pyridine-2-carboxylic acid methylamide]",99,88,98,97,,100,,,,,,,,
"CNC(=O)c1cc(Oc2ccc3nc(NCC4CCCCO4)sc3c2)ccn1 (centres unmarked) [Example 370, N-methyl-4-(2-((tetrahydro-2H-pyran-2-yl)methylamino)benzo[d]thiazol-6-yloxy)picolinamide]",100,81,64,34,60,,,,,,,,,
"O[C@@H]1CCCC[C@H]1Nc1nc2ccc(Oc3ccnc(-c4ccncc4)c3)cc2s1 [Example 280, (1R,2R)-2-(6-(2,4'-bipyridin-4-yloxy)benzo[d]thiazol-2-ylamino)cyclohexanol]",,,,,,,100,65,11,22,100,,,
